The test has as its target cortisol synthase (CYP11B1) (Macaca fascicularis, UniProt A0A2K5ULY1). As to the kind of experiment: Inhibition of Cortisol Synthesis. It is filed as biochemical, cynomolgus monkey. To be noted: cynomolgus adrenal gland mitochondria; 150 units of CYP11B1, 11-deoxycortisol as substrate, cortisol measured as product. Here is the method: The aldosterone synthase and cortisol synthase inhibition assays employ cynomolgus adrenal gland mitochondria as the source of aldosterone synthase (CYP11B2) and cortisol synthase (CYP11B1). […] Activity of CYP11B2 and CYP11B1 in these preparations is defined as the amount of enzyme that generates 1 pmol of product in one hour under the conditions described.
Assays are performed in 96-well format in a final volume of 60 μL/well, containing 100 mM potassium phosphate, pH 7.4, 1% (v/v) DMSO, and additionally, 2 μM of corticosterone and 50 units of CYP11B2 activity. Reactions are started by the addition of NADPH to 1 mM and allowed to proceed for 90 minutes at 37° C. Reactions are terminated by the addition of 60 μL of MeCN containing an internal standard for mass spectrometry. One hundred microliters are then transferred to a glass filter plate and centrifuged at 570×g for 5 minutes and the filtrate is collected. Reaction product aldosterone is quantified by mass spectrometry. To determine the assay blank value (0% activity), NADPH is omitted from some reactions.
Dose dependent inhibition is quantified by the inclusion of compound at various concentrations. Maximum activity (100%) is defined by reactions containing NADPH, but without compound.
Assays are performed as for aldosterone synthase except for the use of 150 units of CYP11B1, 11-deoxycortisol as substrate and cortisol measured as product.
In turn, `NC(=O)c1cccc2c1OCC(c1cncc(CN3CCOCC3=O)c1)O2` (single isomer, unassigned) [Cpd 15A, 2-[5-(3-Oxo-morpholin-4-ylmethyl)-pyridin-3-yl]-2,3-dihydro-benzo[1,4]dioxine-5-carboxylic acid amide] displayed an IC50 of 15 µM.

Regarding `NC(=O)c1cccc2c1OCC(c1cncc(CN3CCOCC3=O)c1)O2` (single isomer, unassigned) [Cpd 15B, 2-[5-(3-Oxo-morpholin-4-ylmethyl)-pyridin-3-yl]-2,3-dihydro-benzo[1,4]dioxine-5-carboxylic acid amide], the IC50 was over 30 µM.

`NC(=O)c1cccc2c1OCC(c1cncc(-c3ccc(S(N)(=O)=O)cc3)c1)O2` (single isomer, unassigned) [Cpd 16A, 2-[5-(4-Sulfamoyl-phenyl)-pyridin-3-yl]-2,3-dihydro-benzo[1,4]dioxine-5-carboxylic acid amide] showed an IC50 of 5.2 µM.

`NC(=O)c1cccc2c1OCC(c1cncc(-c3ccc(S(N)(=O)=O)cc3)c1)O2` (single isomer, unassigned) [Cpd 16B, 2-[5-(4-Sulfamoyl-phenyl)-pyridin-3-yl]-2,3-dihydro-benzo[1,4]dioxine-5-carboxylic acid amide] returned an IC50 of 0.054 µM.

Take `CC(=O)N1CC[C@H](Oc2cncc(C3COc4c(cccc4C(N)=O)O3)c2)C1` (single isomer, unassigned) [Cpd 17A]: the IC50 is over 30 µM.

Compound `CC(=O)N1CC[C@H](Oc2cncc(C3COc4c(cccc4C(N)=O)O3)c2)C1` (single isomer, unassigned) [Cpd 17B] returned an IC50 of 18 µM.

The compound `CC(=O)N1CC[C@@H](Oc2cncc(C3COc4c(cccc4C(N)=O)O3)c2)C1` (single isomer, unassigned) [Cpd 18A] gave an IC50 of 16 µM.

In turn, `CC(=O)N1CC[C@@H](Oc2cncc(C3COc4c(cccc4C(N)=O)O3)c2)C1` (single isomer, unassigned) [Cpd 18B] yielded an IC50 of 1.1 µM.

For the compound `CC(=O)N1CC(Oc2cncc(C3COc4c(cccc4C(N)=O)O3)c2)C1` (single isomer, unassigned) [Cpd 19A, 2-[5-(1-Acetyl-azetidin-3-yloxy)-pyridin-3-yl]-2,3-dihydro-benzo[1,4]dioxine-5-carboxylic acid amide], the IC50 was over 30 µM.

On to `CC(=O)N1CC(Oc2cncc(C3COc4c(cccc4C(N)=O)O3)c2)C1` (single isomer, unassigned) [Cpd 19B, 2-[5-(1-Acetyl-azetidin-3-yloxy)-pyridin-3-yl]-2,3-dihydro-benzo[1,4]dioxine-5-carboxylic acid amide], for which inhibition was half-maximal at 24 µM (IC50).

Regarding `NC(=O)c1cccc2c1OCC(c1cncc(CO)c1)O2` (single isomer, unassigned) [Cpd 20A, 2-(5-Hydroxymethyl-pyridin-3-yl)-2,3-dihydro-benzo[1,4]dioxine-5-carboxylic acid amide], the IC50 is 8.2 µM.

Consider `NC(=O)c1cccc2c1OCC(c1cncc(CO)c1)O2` (single isomer, unassigned) [Cpd 20B, 2-(5-Hydroxymethyl-pyridin-3-yl)-2,3-dihydro-benzo[1,4]dioxine-5-carboxylic acid amide], for which it took 6.8 µM to reach half-maximal inhibition (IC50).

`Cc1c(F)cncc1C1COc2c(cccc2C(N)=O)O1` (single isomer, unassigned) [Cpd 21A, 2-(5-Fluoro-4-methyl-pyridin-3-yl)-2,3-dihydro-benzo[1,4]dioxine-5-carboxylic acid amide] registered an IC50 of 2.6 µM.

Consider `Cc1c(F)cncc1C1COc2c(cccc2C(N)=O)O1` (single isomer, unassigned) [Cpd 21B, 2-(5-Fluoro-4-methyl-pyridin-3-yl)-2,3-dihydro-benzo[1,4]dioxine-5-carboxylic acid amide], for which half-maximal inhibition (IC50) was put at 5.3 µM.

Compound `NC(=O)c1cccc2c1OCC(c1cncc(C(F)F)c1)O2` (single isomer, unassigned) [Cpd 22A, 2-(5-Difluoromethyl-pyridin-3-yl)-2,3-dihydro-benzo[1,4]dioxlne-5-carboxylic acid amide] came in with an IC50 of 2 µM.

For orientation: IC50 means the midpoint of a concentration-inhibition curve. Lower therefore signals greater potency.
